# Reference: patent US11484539B2, “Compounds and their uses for alleviating menopause-associated symptoms” (Estetra SPRL, priority 2018, dated 2022)
# Test system: post-menopausal women
# Assay: Weekly frequency of moderate to severe VMS, dose-finding study
# Format: in vivo
# Details: for Difference with placebo, LS adjusted mean, absolute change in weekly frequency of moderate to severe VMS / Difference with placebo, LS adjusted mean, relative change in weekly frequency of moderate to severe VMS: 15 mg E4 vs placebo; for Differences with placebo (including ineffective doses 2.5 mg and 5 mg), relative change in weekly frequency of moderate to severe VMS, LS adjusted mean / Differences with placebo (including ineffective doses 2.5 mg and 5 mg), relative change in weekly frequency of moderate to severe VMS, p_value: 15.0 mg vs 0 mg; for Relative change in weekly frequency of moderate to severe VMS, LS adjusted mean: analysis with placebo grouped with 2.5 and 5 mg; for Covariate significance, covariate trt1, p_value, relative change in weekly frequency of moderate to severe VMS: 10 mg, 15 mg vs placebo grouped with 2.5 and 5 mg
# Source text: To determine the Minimum Effective Dose (MED), firstly the selection criteria required that patients presented at least 7 moderate to severe VMS/day or at least 50 moderate to severe VMS/week in the week preceding randomization. Secondly, a placebo group was included in a double-blind fashion. Thirdly, the total patient number was such that statistical significance could be obtained between separate arms of the study. Fourthly, the absolute change from baseline in weekly frequency of moderate to severe VMS was taken into account. An analysis of covariance (ANCOVA) was performed based on the untransformed change in weekly frequency of moderate to severe VMS from baseline. Finally, the change in severity from baseline was evaluated. For this, the Severity Scoring System of VMS was documented by the subjects as follows: • a score of Mild (1) for a sensation of heat without sweating; • a score of Moderate (2) for a sensation of heat with sweating/the subject is able to continue activity; and • a score of Severe (3) for a sensation of heat with sweating/which causes cessation of activity.
# Enrolment was approximately 18 months. Individual subject participation was up to 27 weeks: up to 6 weeks pre-screening and washout, up to 4 weeks screening and run-in period, up to 91 days (13 weeks) of E4/placebo treatment followed by 2 weeks (14 days) of progestin therapy and a Follow up visit 1 week after completion of progestin therapy in non-hysterectomised subjects only.
# To define the minimum effective dose (MED) of the oral dose of E4 by evaluating changes in frequency and in severity of moderate to severe vasomotor symptoms (VMS).
# This was a prospective, multicentre, randomised, placebo-controlled, double-blinded, dose-finding study.
# Eligible subjects were hysterectomised and non-hysterectomised post-menopausal women aged 40 to 65 years, inclusive, presenting at least 7 moderate to severe hot flushes/day or at least 50 moderate to severe hot flushes/week.
# The subjects have met all of the following inclusion criteria at the randomization visit. These criteria were assessed during the screening period: • 1. Women aged 40 to 65 years, inclusive, presenting at least 7 moderate to severe hot flushes/day or at least 50 moderate to severe hot flushes/week in the week preceding randomization. • 2. Body Mass Index (BMI) between 18.0 and 35.0 kg/m^2, inclusive. • 3. Post-menopausal status defined as levels of follicle stimulating hormone (FSH) >40 IU/L and: • amenorrhoea for at least 12 consecutive months or, • amenorrhoea for at least 6 months with estradiol (E2)<20 pg/mL or, • at least 6 weeks post-surgical bilateral oophorectomy with or without hysterectomy with a copy of the pathology report or a statement on letterhead from the subject's physician documenting both ovaries were removed is required. • 4. For non-hysterectomised women: intact uterus with bi-layer endometrial thickness […] on TVUS. • 5. Negative pregnancy test. • 6. Good physical and mental health, in the judgement of the Principal Investigator (PI), on the basis of medical, surgical and gynaecological history, physical examination, gynaecological examination, clinical laboratory, and vital signs. • 7. Subject has provided signed and dated written informed consent before admission to the study. • 8. Subject is able to understand and comply with the protocol requirements, instructions, and protocol-stated restrictions. Exclusion Criteria:
# All treatments (Estetrol, hereinafter, E4, [2.5 mg, 5 mg, 10 mg, 15 mg] capsule) were administered once daily (QD) per os for at least 12 consecutive weeks until the last biological assessments (Day 91 maximum) had been performed.
# In order to analyse the data recorded in this study, treatment groups have been compared using an ANCOVA (analysis of covariance) with respect to the change in weekly frequency of moderate to severe VMS from baseline to weeks 4 and 12. […]
# [1] = week 4, ANCOVA with study centre
# [2] = week 12, ANCOVA with study centre
structure (smiles),measurement,setting,value
"C[C@]12CC[C@@H]3c4ccc(O)cc4CC[C@H]3[C@@H]1[C@@H](O)[C@@H](O)[C@@H]2O [E4, 1,3,5 (10)-estratrien-3,15alpha,16alpha,17beta-tetrol]",Mean change from baseline in weekly frequency of moderate to severe VMS,"15 mg E4 QD per os, week 4",−41.43
same,"Relative change (% from baseline) in weekly frequency of moderate to severe VMS, mean","15 mg E4 QD per os, week 4",−67%
same,Mean change from baseline in weekly frequency of moderate to severe VMS,"15 mg E4 QD per os, week 5",−44.34
same,"Relative change (% from baseline) in weekly frequency of moderate to severe VMS, mean","15 mg E4 QD per os, week 5",−72%
same,Mean change from baseline in weekly frequency of moderate to severe VMS,"15 mg E4 QD per os, week 6",−46.58
same,"Relative change (% from baseline) in weekly frequency of moderate to severe VMS, mean","15 mg E4 QD per os, week 6",−76%
same,Mean change from baseline in weekly frequency of moderate to severe VMS,"15 mg E4 QD per os, week 7",−48.51
same,"Relative change (% from baseline) in weekly frequency of moderate to severe VMS, mean","15 mg E4 QD per os, week 7",−79%
same,Mean change from baseline in weekly frequency of moderate to severe VMS,"15 mg E4 QD per os, week 8",−48.35
same,"Relative change (% from baseline) in weekly frequency of moderate to severe VMS, mean","15 mg E4 QD per os, week 8",−79%
same,Mean change from baseline in weekly frequency of moderate to severe VMS,"15 mg E4 QD per os, week 9",−49.62
same,"Relative change (% from baseline) in weekly frequency of moderate to severe VMS, mean","15 mg E4 QD per os, week 9",−81%
same,Mean change from baseline in weekly frequency of moderate to severe VMS,"15 mg E4 QD per os, week 10",−48.88
same,"Relative change (% from baseline) in weekly frequency of moderate to severe VMS, mean","15 mg E4 QD per os, week 10",−80%
same,Mean change from baseline in weekly frequency of moderate to severe VMS,"15 mg E4 QD per os, week 11",−49.92
same,"Relative change (% from baseline) in weekly frequency of moderate to severe VMS, mean","15 mg E4 QD per os, week 11",−82%
same,Mean change from baseline in weekly frequency of moderate to severe VMS,"15 mg E4 QD per os, week 12",−50.94
same,"Relative change (% from baseline) in weekly frequency of moderate to severe VMS, mean","15 mg E4 QD per os, week 12",−84%
same,"Difference with placebo, LS adjusted mean, absolute change in weekly frequency of moderate to severe VMS",[1],−9.804
same,"Difference with placebo, LS adjusted mean, relative change in weekly frequency of moderate to severe VMS",[1],−0.1564
same,"Difference with placebo, LS adjusted mean, absolute change in weekly frequency of moderate to severe VMS","week 4, without site effect",−10.71
same,"Difference with placebo, LS adjusted mean, relative change in weekly frequency of moderate to severe VMS","week 4, without site effect",−0.1703
same,"Difference with placebo, LS adjusted mean, absolute change in weekly frequency of moderate to severe VMS",[2],−10.09
same,"Difference with placebo, LS adjusted mean, relative change in weekly frequency of moderate to severe VMS",[2],−0.1585
same,"Difference with placebo, LS adjusted mean, absolute change in weekly frequency of moderate to severe VMS","week 12, without site effect",−10.98
same,"Difference with placebo, LS adjusted mean, relative change in weekly frequency of moderate to severe VMS","week 12, without site effect",−0.1723
same,Reduction in the frequency of moderate to severe VMS when compared to baseline,15 mg daily dose,over 80%
same,Responders: patients showing a response of 50% or more (relative change from baseline in weekly frequency of moderate to severe VMS),"15 mg daily dose, week 12",91.8%
same,Responders: patients showing a response of 75% or more (weekly frequency of moderate to severe VMS),"15 mg daily dose, week 12",77.6%
same,"Differences with placebo (including ineffective doses 2.5 mg and 5 mg), relative change in weekly frequency of moderate to severe VMS, LS adjusted mean",week 4,−0.1797
same,"Differences with placebo (including ineffective doses 2.5 mg and 5 mg), relative change in weekly frequency of moderate to severe VMS, p_value",week 4,0.00218
same,"Differences with placebo (including ineffective doses 2.5 mg and 5 mg), relative change in weekly frequency of moderate to severe VMS, LS adjusted mean",week 12,−0.1826
same,"Differences with placebo (including ineffective doses 2.5 mg and 5 mg), relative change in weekly frequency of moderate to severe VMS, p_value",week 12,0.00099
same,"Relative change (% from baseline) in weekly frequency of moderate to severe VMS, mean","15 mg, Week 12",−84%
same,"Relative change (% from baseline) in weekly frequency of moderate to severe VMS, mean","15 mg, week 0",0%
same,"Relative change (% from baseline) in weekly frequency of moderate to severe VMS, mean","15 mg, week 1",−22%
same,"Relative change (% from baseline) in weekly frequency of moderate to severe VMS, mean","15 mg, week 2",−46%
same,"Relative change (% from baseline) in weekly frequency of moderate to severe VMS, mean","15 mg, week 3",−57%
same,"Relative change (% from baseline) in weekly frequency of moderate to severe VMS, mean","15 mg, week 4",−67%
same,"Relative change in weekly frequency of moderate to severe VMS, LS adjusted mean","15 mg, week 4",−0.6475
same,"Relative change (% from baseline) in weekly frequency of moderate to severe VMS, mean","15 mg, week 5",−72%
same,"Relative change (% from baseline) in weekly frequency of moderate to severe VMS, mean","15 mg, week 6",−76%
same,"Relative change (% from baseline) in weekly frequency of moderate to severe VMS, mean","15 mg, week 7",−79%
same,"Relative change (% from baseline) in weekly frequency of moderate to severe VMS, mean","15 mg, week 8",−79%
same,"Relative change (% from baseline) in weekly frequency of moderate to severe VMS, mean","15 mg, week 9",−81%
same,"Relative change (% from baseline) in weekly frequency of moderate to severe VMS, mean","15 mg, week 10",−80%
same,"Relative change (% from baseline) in weekly frequency of moderate to severe VMS, mean","15 mg, week 11",−82%
same,"Relative change in weekly frequency of moderate to severe VMS, LS adjusted mean","15 mg, week 12",−0.8006
same,Minimal Effective Dose for the alleviation of VMS,perimenopausal and postmenopausal women,about 15 mg daily
same,Efficacy on vasomotor parameters,two lowest doses tested (2.5 mg per day and 5 mg per day),did not show efficacy
same,"Covariate significance, covariate trt1, p_value, relative change in weekly frequency of moderate to severe VMS",week 4,0.0039
same,"Covariate significance, covariate trt1, p_value, relative change in weekly frequency of moderate to severe VMS",week 12,0.0017
